Tests used:
SERCA2b = SERCA2b protein level by Western blotting, THP-1 cells; assay type: cell-based, human; conditions: THP-1 cells following heme treatment vs parental THP-1 cells
Method: FIGS. 5A-5F show MFSD7C and heme regulate thermogenesis through SERCA2b in THP-1 cells. […] 30 hours later, MG132 was added into half of the cells and the other half was not treated. Another 35 hours later, some cells were treated with 40 μM heme for 1 hour before lysis. Cell lysates were immunoprecipitated with anti-FLAG antibody, and eluted, followed by anti-HA immunoprecipitation and elution. Total cell lysate and elute were subjected to Western blotting and probed with anti-SERCA2b or anti-MFSD7C antibodies. Shown are representative data from one of three experiments. […] 24 hrs later, cells were either not treated or treated with 10 μM MG132 for either 6 or 12 hours. The cells were lysed and subjected to FLAG pull-down and blotted with anti-MFSD7C, anti-SERCA2b and anti-ubiquitin antibodies. Shown are representative data from one of three experiments. […] Parental THP-1 cells were either not treated or treated with heme before lysis. Shown are representative data from one of four experiments. […] Shown are representative data from one of two experiments. […] Cells were washed and treated with 40 μM heme for one hour before flow cytometry. Representative FPT histograms from one of three experiments are shown. […] Shown are representative FPT histograms from one of three experiments.
Endogenous protein extraction. […]

Serca2b^−/− THP-1 cells = test: Thermogenesis by FPT in Serca2b knockout THP-1 cells; assay type: cell-based, human; conditions: 40 μM heme 1 hour, FPT flow cytometry
Method: FIGS. 5A-5F show MFSD7C and heme regulate thermogenesis through SERCA2b in THP-1 cells. […] 30 hours later, MG132 was added into half of the cells and the other half was not treated. Another 35 hours later, some cells were treated with 40 μM heme for 1 hour before lysis. Cell lysates were immunoprecipitated with anti-FLAG antibody, and eluted, followed by anti-HA immunoprecipitation and elution. Total cell lysate and elute were subjected to Western blotting and probed with anti-SERCA2b or anti-MFSD7C antibodies. Shown are representative data from one of three experiments. […] 24 hrs later, cells were either not treated or treated with 10 μM MG132 for either 6 or 12 hours. The cells were lysed and subjected to FLAG pull-down and blotted with anti-MFSD7C, anti-SERCA2b and anti-ubiquitin antibodies. Shown are representative data from one of three experiments. […] Parental THP-1 cells were either not treated or treated with heme before lysis. Shown are representative data from one of four experiments. […] Shown are representative data from one of two experiments. […] Cells were washed and treated with 40 μM heme for one hour before flow cytometry. Representative FPT histograms from one of three experiments are shown. […]
In the second approach, we used fluorescent polymeric thermometer (FPT), which we synthesized in-house (see above). […] Then the fluorescence intensities were determined by a flow cytometer.

[1] = target: T1, interaction between HMOX1 and MFSD7C (Mus musculus, UniProt Q91X85); test: Co-IP of HA-tagged MFSD7C with FLAG-tagged HMOX1 in transfected 293FT cells; assay type: cell-based, murine; conditions: 10 μM or 40 μM heme for one hour before cell lysis
T1 construct: expressed in transfected cells; host or cells: 293FT cells
Method: Co-transfection and immunoprecipitation. For co-IP, HA-tagged MFSD7C was co-transfected with FLAG-tagged HMOX1 (Origene Catalog No. MR203944), CYC1, COX4I1, NDUFA4, ATP5h, ATP5c1 into 293FT cells using TransIT®-LT1 Transfection Reagent (Mirus). Thirty-six hours after transfection, the cells were lysed using cold Lysis Buffer containing 20 mM Tris-HCl (pH 7.4), 150 mM NaCl, 0.1% NP-40, 10% glycerol, proteinase inhibitor (Sigma Catalog No. 4693132001), and phosphatase inhibitors (Sigma Catalog No. 4906845001). The clear supernatants from the lysate were incubated with M2-magnetic beads conjugated with anti-FLAG antibody (Sigma Catalog No. M8823) for 2 hours at 4° C. Then the beads were washed twice and eluted by the 3× FLAG peptides (Sigma Catalog No. F4799).
To determine the effect of heme on MFSD7C interactions with ETC components, HMOX1 or SERCA2b, 293FT cells were transiently transfected with HA-tagged murine MFSD7C and FLAG-tagged murine CYC1, NDUFA4, COX4i1, ATP5h, ATP5c1, HMOX1 or SERCA2b. 35 hrs later, co-transfected cells were incubated with DMSO (vehicle) or 10 μM or 40 μM of heme for one hour before lysis. Cell lysates were precipitated with anti-HA antibody, eluted with HA peptide, further precipitated with anti-FLAG antibody, eluted with FLAG peptide, and then subjected to Western blotting with anti-HA and anti-FLAG antibodies. […]

MCF7 cells = test: Thermogenesis by FPT, parental MCF7 cells; assay type: cell-based, human; conditions: heme for 1 hour
Method: Shown are representative graphs of OCR output of the indicated cells with or without hematin treatment and their responses to oligomycin, FCCP, and rotenone plus antimycin A (FIG. 12B), basal OCR (FIG. 12C), maximal OCR (FIG. 12D), and ECAR (FIG. 12E) from two separate experiments with n=10 biologically independent samples. Data are presented as mean value±standard deviation. Each dot represents one technical replicate. […] Parental and knockout cells were incubated with no probe or FPT for 6 hours, and then washed twice. A portion of FPT-treated cells was treated with heme for 1 hour. FPT fluorescence intensity was quantified by flow cytometry. Shown are representative plots from two separate experiments. P-values were calculated using two-way ANOVA (***p<0.001).
In the second approach, we used fluorescent polymeric thermometer (FPT), which we synthesized in-house (see above). Parental and knockout THP-1 cells were mixed together, washed and incubated with FPT in 5% w/v glucose solution for 6 hrs. The cells were washed with PBS twice and reseeded in dishes with glass bottom that was coated with poly-lysine. The cells were imaged under Confocal Laser-Scanning Microscopy at 37° C. […] Then the fluorescence intensities were determined by a flow cytometer.

[2] = target: T2, MFSD7C-SERCA2b co-localization (Homo sapiens, UniProt Q9UPI3); test: Confocal co-localization of MFSD7C and SERCA2b in THP-1 cells; assay type: cell-based; conditions: 40 μM heme 1 hour, 0.89 without heme
T2 construct: host or cells: THP-1 cells
Method: FIGS. 16A-16F show Co-localization of MFSD7C and SERCA2b. […] Shown are representative images of THP-1 cells stained for MFSD7C (red), SERCA2b (green), nuclei (blue) and merged image. […] THP-1 cells were not treated or treated with 40 μM of heme for 1 hour and then stained for MFSD7C, SERCA2b and nuclei as in (FIG. 16A). Co-localization between MFSD7C and SERCA2b was quantified. Shown are representative merged images (FIG. 16B) and comparison of Pearson's correlation coefficients values with or without heme treatment (FIG. 16C) (in FIG. 16C, n=7 biologically independent samples). P-values were calculated using unpaired t-test (***p<0.05). […] THP-1 cells were stained for MFSD7C (red), ER (green), mitochondria (blue), and DNA (grey). Shown are representative single and merged images (FIG. 16D). Enlarged image of the boxed area is shown in the last panel (bottom-right). Pearson's rank correlation values between the indicated comparisons are shown (FIG. 16E). (n=3 biologically independent samples). […] THP-1 cells were incubated with FPT for 6 hours, washed, treated with or without 4 μM thapsingargin for 2 hours. The cells were washed and reseeded in poly-lysine coated glass bottom dishes. After cells attached to the glass, medium containing 40 μM heme was added. Cells in the same field were imaged immediately (0 min) and again 1 hour later. […]

T1 sequence (Q91X85 whole entry): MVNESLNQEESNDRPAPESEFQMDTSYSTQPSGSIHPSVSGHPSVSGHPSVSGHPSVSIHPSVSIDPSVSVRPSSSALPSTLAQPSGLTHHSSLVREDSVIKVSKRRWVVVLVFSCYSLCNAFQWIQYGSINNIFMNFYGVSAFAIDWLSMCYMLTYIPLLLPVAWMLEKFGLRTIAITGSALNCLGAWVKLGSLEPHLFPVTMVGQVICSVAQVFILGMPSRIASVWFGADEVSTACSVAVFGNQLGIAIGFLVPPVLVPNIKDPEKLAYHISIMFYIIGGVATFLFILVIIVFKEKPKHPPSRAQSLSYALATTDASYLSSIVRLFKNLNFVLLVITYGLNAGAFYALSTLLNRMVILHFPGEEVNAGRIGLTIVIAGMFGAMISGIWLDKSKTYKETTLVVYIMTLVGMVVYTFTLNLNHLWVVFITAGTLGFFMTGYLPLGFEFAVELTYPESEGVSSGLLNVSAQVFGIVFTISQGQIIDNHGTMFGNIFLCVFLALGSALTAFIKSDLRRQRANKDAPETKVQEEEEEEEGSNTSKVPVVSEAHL
T1 sequence (P14901 whole entry partner): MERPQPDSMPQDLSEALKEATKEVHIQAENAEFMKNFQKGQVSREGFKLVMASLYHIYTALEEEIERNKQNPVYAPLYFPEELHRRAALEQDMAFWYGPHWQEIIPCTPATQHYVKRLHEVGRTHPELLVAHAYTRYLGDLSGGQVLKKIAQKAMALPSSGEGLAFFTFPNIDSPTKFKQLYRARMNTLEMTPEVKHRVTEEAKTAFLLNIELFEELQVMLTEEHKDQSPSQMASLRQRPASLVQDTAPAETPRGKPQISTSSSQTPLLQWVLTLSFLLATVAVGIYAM
T2 sequence (Q9UPI3 whole entry): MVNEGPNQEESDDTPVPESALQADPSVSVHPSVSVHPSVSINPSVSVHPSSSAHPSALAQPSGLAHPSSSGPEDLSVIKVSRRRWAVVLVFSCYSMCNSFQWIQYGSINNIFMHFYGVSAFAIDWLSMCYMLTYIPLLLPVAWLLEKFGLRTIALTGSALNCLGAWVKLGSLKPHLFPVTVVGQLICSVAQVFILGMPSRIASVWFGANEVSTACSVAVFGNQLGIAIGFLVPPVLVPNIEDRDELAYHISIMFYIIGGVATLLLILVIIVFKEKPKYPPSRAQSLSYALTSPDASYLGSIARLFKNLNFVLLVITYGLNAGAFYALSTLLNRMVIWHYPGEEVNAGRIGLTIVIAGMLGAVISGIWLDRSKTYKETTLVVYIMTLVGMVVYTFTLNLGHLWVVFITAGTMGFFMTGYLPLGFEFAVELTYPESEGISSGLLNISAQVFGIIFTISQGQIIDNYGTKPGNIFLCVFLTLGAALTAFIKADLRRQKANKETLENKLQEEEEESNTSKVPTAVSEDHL

C=CC1=C(C)c2cc3[n-]c(cc4[n-]c(cc5nc(cc1n2)C(C)=C5C=C)c(C)c4CCC(=O)O)c(CCC(=O)O)c3C.[Fe+2] [heme]
SERCA2b level (SERCA2b): significantly higher | thermogenesis following heme treatment (Serca2b^−/− THP-1 cells): significantly diminished | interaction between HMOX1 and MFSD7C (co-IP) [1]: enhanced | FTP intensity (MCF7 cells): significantly stimulated | Pearson's correlation coefficient value of MFSD7C/SERCA2b co-localization [2]: 0.67
